Laboratory results reported in patent US20060276452A1, “Use of azetidinecarboxamide derivatives in therapy” (VERNALIS RESEARCH LIMITED, priority 2003, published 2006).

How the values were obtained:
[1] = biological target: T1, recombinant human CB1 receptors (Homo sapiens, UniProt P21554); test: Binding to recombinant human CB1 receptors ([3H]-SR-141716A displacement, HEK293 membranes); settings: [3H]-SR-141716A 1 nM; membranes of HEK293 cells expressing hCB1; Ki from IC50 by Cheng-Prusoff
T1 construct: expressed in transfected cells; host or cells: HEK293 cells
T1 sequence (P21554 whole entry): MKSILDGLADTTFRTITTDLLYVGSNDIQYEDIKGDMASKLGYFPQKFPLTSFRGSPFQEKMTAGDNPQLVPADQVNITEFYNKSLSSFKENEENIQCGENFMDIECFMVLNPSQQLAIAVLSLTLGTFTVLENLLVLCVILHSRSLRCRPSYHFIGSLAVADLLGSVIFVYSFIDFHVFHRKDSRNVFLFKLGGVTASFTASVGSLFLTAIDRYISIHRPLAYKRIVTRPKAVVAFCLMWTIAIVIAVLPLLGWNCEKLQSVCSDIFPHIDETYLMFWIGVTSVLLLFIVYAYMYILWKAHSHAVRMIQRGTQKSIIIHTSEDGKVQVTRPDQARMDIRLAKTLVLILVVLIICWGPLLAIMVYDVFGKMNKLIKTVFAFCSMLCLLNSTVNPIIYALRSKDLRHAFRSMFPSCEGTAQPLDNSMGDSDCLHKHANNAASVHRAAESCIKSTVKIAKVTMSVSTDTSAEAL
Description: The binding of compounds of Formula I to recombinant human CB1 receptors was determined in vitro by standard methods, with reference to the procedure described by Rinaldi-Carmona et al. (Rinaldi-Carmona, M., Pialot, F., Congy, C., Redon, E., Bart, F., Bachy, A., Breliere, J. C., Soubre, P., LeFur, G., Life Sci. 1996, 58(15), 1239-1247). Membranes were prepared from HEK293 cells expressing recombinant hCB1 receptors. Binding assays are performed in a total volume of 250 μL, containing [^3H]-SR-141716A (1 nM final concentration), membranes and test compound. Non-specific binding is determined using CP55,940 (10 μM). Serial dilutions are performed starting from test compounds as 10 mM solutions in DMSO. Compounds are tested over the concentration range 10^−10 M to 10^−5 M. Ki values are calculated from IC50 values using the Cheng-Prusoff equation.

melting point | Ki [1] | SMILES
76 to 78 °C |  | C[C@@H](O)CNC(=O)N1CC(OCc2ccc(Cl)cc2)C1 [Example 36]
163 to 165.5 °C |  | NC(=O)N1CC(OCc2cccc(Cl)c2)C1 [Example 44, 3-((3-chlorophenyl)methoxy)-azetidine-1-carboxamide]
 | 285 nM | C=CCNC(=O)N1CC(OC(c2ccc(Cl)cc2)c2ccc(Cl)cc2)C1 [Example 6, 3-(Bis(4-chlorophenyl)methoxy)-N-(2-propenyl)azetidine-1-carboxamide]
110.5 to 112 °C |  | CCC(OC1CN(C(N)=O)C1)c1cccc(C(F)(F)F)c1 (stereo not shown) [Example 42]
